Assay results as given in US20140309192A1, “MODULATORS OF THE G PROTEIN-COUPLED MAS RECEPTOR AND THE TREATMENT OF DISORDERS RELATED THERETO” (ARENA PHARMACEUTICALS, INC., priority 2011, published 2014).

Columns and labels:
[1] = target: T1, rat Mas receptor (Rattus norvegicus, UniProt P12526); test: cAMP Dynamic2 HTRF assay, HEK293 cells stably expressing rat Mas receptor; format: cell-based; settings: forskolin stimulated cAMP, means ± SEM, NR = No Response, read-out: Gi/cAMP IC50
T1 construct: expressed in transfected cells; host or cells: HEK293 (ATCC CRL-1573)
T1 sequence (P12526 1-324): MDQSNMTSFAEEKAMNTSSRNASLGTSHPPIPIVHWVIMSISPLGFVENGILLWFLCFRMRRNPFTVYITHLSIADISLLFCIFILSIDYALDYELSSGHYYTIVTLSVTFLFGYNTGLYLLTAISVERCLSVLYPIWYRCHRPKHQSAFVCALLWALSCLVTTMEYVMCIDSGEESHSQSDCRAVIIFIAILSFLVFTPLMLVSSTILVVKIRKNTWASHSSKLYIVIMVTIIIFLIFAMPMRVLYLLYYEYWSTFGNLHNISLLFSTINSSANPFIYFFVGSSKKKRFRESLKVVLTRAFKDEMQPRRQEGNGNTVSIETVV
Procedure: cAMP accumulation in HEK293 cells stably expressing human or rat Mas receptors was determined by the 384 well cAMP Dynamic2 Homogenous Time-Resolved Fluorescence (HTRF®) assay (CisBio Cat#62AM4PEB) following the manufacturer's protocol. Briefly, cells were plated at 30,000 or 1000 cells per well in 5 μL stimulation buffer (PBS containing 500 μM IBMX and 0.1% bovine serum albumin), 5 μL of Mas compounds diluted in PBS were added to each well and serial diluted cAMP standards were also added to corresponding wells at this step. For detecting […] activities, 10 μM forskolin was included with the compounds for a final concentration of 5 μM at the stimulation step. Following 1 h stimulation at room temperature, d2-labeled cAMP and anti-cAMP cryptate conjugate diluted in detection buffer (included in the kit) were added to cells sequentially at 5 μl per well. The plates were incubated further for 1 h at room temperature. Ratiometic measurements of fluorescence emission at 665 nm and 620 nm were obtained by Pherastar fluorometer (BMG Labtech) and cAMP levels in each well were calculated according to the standard curves on each plate. IC50 values were obtained by fitting data to a nonlinear curve-fitting program (GraphPad Software, Inc., La Jolla Calif.).

[2] = target: T2, human Mas receptor (Homo sapiens, UniProt P04201); test: Ca2+ measurements by FLIPR assay, HEK293 cells stably expressing human Mas receptors; format: cell-based; settings: HEK293 cells stably expressing the human Mas receptor
T2 construct: expressed in transfected cells; host or cells: HEK293 (ATCC CRL-1573)
T2 sequence (P04201 1-325): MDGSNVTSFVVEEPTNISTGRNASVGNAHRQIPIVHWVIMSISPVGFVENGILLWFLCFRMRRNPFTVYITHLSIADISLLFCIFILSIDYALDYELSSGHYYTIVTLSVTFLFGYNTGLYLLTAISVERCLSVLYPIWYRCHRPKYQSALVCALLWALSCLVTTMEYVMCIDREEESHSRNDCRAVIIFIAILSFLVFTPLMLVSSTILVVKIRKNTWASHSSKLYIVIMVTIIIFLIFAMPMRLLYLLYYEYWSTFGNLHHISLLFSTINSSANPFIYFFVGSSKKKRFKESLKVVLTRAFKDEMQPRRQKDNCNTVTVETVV
Procedure: HEK293 cells stably expressing human Mas receptors were monitored for changes in intracellular Ca^2+ using a FLIPR-384 (Molecular Devices, Sunnyvale, Calif.). Cells were seeded into black-walled clear-base 384-well plates at a density of 2×10^4 cells per well and incubated with Hank's Balanced Salt Solution (HBSS) containing 20 mM HEPES pH 7.4, 2 μM Calcium 3 dye (Molecular Devices Corporation, Sunnyvale, Calif.) and 2.5 mM probenecid at 37° C. for 60 min. Cells were washed with HBSS containing 20 mM HEPES, pH 7.4 and 2.5 mM probenecid and the plates were then placed into the FLIPR instrument to monitor cell fluorescence before and after the addition of the agonists at different concentrations.

[3] = tested on: isolated perfused rat hearts; test: Global ischemia-reperfusion in Langendorff perfused rat hearts (coronary flow, arrhythmias)
Procedure: For ischemia-reperfusion experiments, Langendorff perfused rat hearts were equilibrated for 20 min and then baseline coronary flow was recorded for 10 min Thereafter, all hearts were subjected to 30 min of global ischemia by stopping perfusate flow, followed by 30 min of reperfusion with either vehicle (0.01% DMSO), Mas agonist AR234960 (1 μM) or Mas inverse agonist AR244555 (5 μM) added to the perfusion buffer. Electrocardiography was also continuously recorded during the observation period through electrodes attached directly to the surface of the ventricles to detect cardiac arrhythmias during reperfusion.

[4] = Mean arterial blood pressure in anesthetized rats (Example 4); format: in vivo, rat; settings: low, medium and high dose i.v.; 25 min after starting dosing
Procedure: Adult rats were anesthetized with sodium pentobarbital (50 mg/kg i.p.) and placed in the supine position on a surgery frame with a heating pad (37° C.) beneath. Rats were tracheostomized and ventilated with a SAR-830 small-animal ventilator (Model 683, Harvard Apparatus) to provide room air at a tidal volume of 2.5 mL/stroke and at a rate of 70 stroke/min. Polyethylene catheters were placed in the right internal carotid artery and the external jugular vein for measurement of mean arterial blood pressure and infusion of drug or vehicle, respectively.
Animals were randomly divided into the following 4 groups: (1-3) low, medium, and high doses of Compound 170 administered by continuous i.v. infusion starting 30 min before coronary artery ligation (n=6 per dose), and (4) 20% HPBCD (vehicle, hydroxypropyl-β-cyclodextrin) administered by continuous i.v. infusion beginning 30 min before coronary artery ligation (n=6). All the rat hearts listed above were used for calculation of myocardial infarct size (see below). Mean arterial blood pressure was measured after stabilization and just prior to drug infusion (baseline) and again following 25 min of drug or vehicle infusion, before coronary artery ligation. […]

Compound | IC50 [1] [nM] | intracellular Ca2+ [2] | frequency of prolonged ventricular arrhythmias during reperfusion ([3]; 1 μM, three out of seven hearts) [%] | coronary flow during reperfusion compared to vehicle treated hearts ([3]; 30 min global ischemia, 30 min reperfusion, AR234960 1 μM, AR244555 5 μM in perfusate during reperfusion) | mean arterial blood pressure (MAP) compared to vehicle treatment [4]
COc1cc([N+](=O)[O-])ccc1S(=O)(=O)N1CC(CN2CCN(c3ccccn3)CC2)C(c2cccc(F)c2)C1 (centres unmarked) [AR234960] | 1710 ± 11 | significant increase | 42.9 | trend toward decreased coronary flow | 
NC(=O)[C@H](CO)NCc1ccc(C(=O)Nc2ccc(Cl)cc2N2CCN(CCC(F)(F)F)CC2)c(F)c1F [Compound 170, (S)-4-((1-Amino-3-hydroxy-1-oxopropan-2-ylamino)methyl)-N-(4-chloro-2-(4-(3,3,3-trifluoropropyl)piperazin-1-yl)phenyl)-2,3-difluorobenzamide] |  |  |  |  | no significant effect
